Source: US20210139435A1, “PROSTAGLANDIN ANALOGS AND USES THEREOF” (Lifex Biolabs, Inc., priority 2019, published 2021)

Biological target: T1, mouse Nurr1 full-length (Mus musculus, UniProt Q06219)
T1 construct: pcDNA3.1 Myc/His mouse Nurr1 full-length construct; expressed in transfected cells; host or cells: SK-N-BE2C
Assay: Luciferase reporter gene assay for Nurr1 transcriptional activity in SK-N-BE2C cells
Assay type: cell-based
Conditions: relative activity over control (luminescence value; 1.0)
Description: To investigate whether the PG analogs of the present invention activate Nurr1 function, the inventors of the present invention employed an reporter gene assay and examined the transcriptional activation as described in Kim, C.-H. et al., Proceedings of the National Academy of Sciences 112, 8756-8761, doi:10.1073/pnas.1509742112 (2015).
The gene assay was performed by Luciferase assay as described below:
[Protocol for Luciferase Assay to Determine Nurr1 Transcriptional Activity] • 1. SK-N-BE2C cells were maintained in HyClone™ DMEM High Glucose (Cat. No.: SH30022.01) with 10% (v/v) fetal bovine serum (FBS), 100 units/ml penicillin and 100 μg/ml streptomycin. • 2. Seed 1.5×10^5 SK-N-BE2C cells/well into a 24-well plate and incubate at 37° C. with 5% CO2 for 24 hours. • 3. After 24 hours, transfect cells with pcDNA3.1 Myc/His mouse Nurr1 full-length construct, firefly luciferase reporter vector (pGL-3 basic from Promega, Cat. No.:E1751; with appropriate response element cloned in) and Renilla luciferase control vector (pRL-null from Promega, Cat. No.:E2271) in the ratio of 8:1:1 (Nurr1: firefly: renilla) or 400 ng, 50 ng and 50 ng respectively, amounting to a total of 500 ng in the 50 μl transfection mix for 1 well. • 4. To make the transfection mix, first prepare the DNA with P3000 reagent by adding the appropriate amount of DNA with 1 μl P3000 reagent and top up with Opti-MEM® I Reduced-Serum Media (from ThermoFisher Scientific [Cat. No.: 31985070]) to 25 μl. Incubate for 5 minutes at room temperature. • 5. Make another mix consisting of 1 μl Lipofectamine 3000 reagent with 24 μl Opti-MEM® I Reduced-Serum Media per well. Add this Lipofectamine mix to the previous DNA-P3000 mix (after the previous 5 minute incubation) and incubate them for 15 minutes at room temperature. [P3000:Lipofectamine=1:1]. • 6. In the meantime, change the media in the sample wells with fresh DMEM media without antibiotics. • 7. After 15 minutes incubation, add the 50 μl transfection mix into each well and incubate the plate for 24 hours at 37° C. with 5% CO2. • 8. After 24 hours, change the media to normal DMEM media with antibiotics and add various doses of compounds into designated wells and incubate the plate for another 24 hours at 37° C. with 5% CO2. • 9. Following the 24-hour incubation period, luciferase assay can be conducted using Dual-Glo Luciferase® kit from Promega (Cat. No.: E2920). • 10. Lyse each tested wells for 15 minutes with 75 μl of passive lysis buffer provided in the Dual-Luciferase® kit from Promega (Cat. No.: E1910). [Alternatively, add 75 μl of PBS and 75 μl of Dual-Glo® Luciferase Reagent and incubate for 10 minutes at room temperature (cover the plate with foil to protect from light). Transfer the entire sample in each well to a Greiner CELLSTAR® 96-well white polystyrene plate then proceed to step 13]. • 11. After 15 minutes, transfer each lysed sample to a Greiner CELLSTAR® 96-well white polystyrene plate (Cat. No.:655083). • 12. To each well of lysed cells, add 75 μl of Dual-Glo® Luciferase Reagent and incubate for 10 minutes at room temperature (cover the plate with foil to protect from light). • 13. Set the measurement with a 10-second integrated measurement period. • 14. Add 75 μl of Dual-Glo® Stop & Glo® reagent into each well and incubate for 10 minutes before commencing with the same parameters as before to determine the RLU for the Renilla luciferase. • 15. The averaged reading for wells corresponding to non-transfected cells can be subtracted from each RLU reading and duplicate/triplicate readings can then be averaged. Normalization of the luminescence reading for each well can be carried out by dividing the firefly luciferase RLU with the corresponding Renilla luciferase RLU. Each drug-treated well can then be normalized against the averaged DMSO-treated well reading.

T1 sequence (Q06219 whole entry): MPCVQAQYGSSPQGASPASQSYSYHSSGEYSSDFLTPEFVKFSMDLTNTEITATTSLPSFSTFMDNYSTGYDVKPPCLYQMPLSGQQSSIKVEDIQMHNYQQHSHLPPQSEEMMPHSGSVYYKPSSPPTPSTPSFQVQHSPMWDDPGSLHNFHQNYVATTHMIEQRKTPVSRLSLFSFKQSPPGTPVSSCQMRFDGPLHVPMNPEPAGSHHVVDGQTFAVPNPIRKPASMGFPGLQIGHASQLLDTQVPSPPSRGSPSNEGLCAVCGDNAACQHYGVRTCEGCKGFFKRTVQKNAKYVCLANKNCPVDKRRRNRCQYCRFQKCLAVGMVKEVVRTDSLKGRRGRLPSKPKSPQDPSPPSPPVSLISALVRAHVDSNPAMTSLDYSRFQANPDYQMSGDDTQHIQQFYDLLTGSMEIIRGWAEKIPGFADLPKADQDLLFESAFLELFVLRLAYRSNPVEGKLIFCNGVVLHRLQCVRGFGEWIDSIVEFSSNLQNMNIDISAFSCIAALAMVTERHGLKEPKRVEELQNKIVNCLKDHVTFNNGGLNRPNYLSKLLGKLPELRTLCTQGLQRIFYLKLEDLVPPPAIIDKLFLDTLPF

With CS(=O)(=O)NC(=O)CCC/C=C\C[C@H]1C(=O)C[C@@H](O)[C@@H]1/C=C/[C@@H](O)COc1ccccc1 [Compound 22, Sulprostone] the “Fold activity (1 uM)” value was “B (1.1~2.0 (moderate))”.

In the case of O=C(O)CCC/C=C\C[C@H]1[C@@H](O)CC(=O)[C@@H]1/C=C/[C@@H](O)COc1cccc(C(F)(F)F)c1 [Compound 23, 11-keto Fluprostenol], the “Fold activity (1 uM)” value is reported as “B (1.1~2.0 (moderate))”.

CCCCC[C@H](O)/C=C/[C@H]1[C@H](O)CC(=O)[C@@H]1C/C=C\CCCC(=O)OCC(O)CO (stereo partly drawn) [Compound 24, Prostaglandin E2-1-glyceryl ester] was tested, and the “Fold activity (1 uM)” value was “A (above 2.0 (high activity))”.

With C=C1C[C@H](O)[C@H](C/C=C\CCCC(=O)O)[C@H]1/C=C/[C@@H](O)CCCCC [Compound 25, 11-deoxy-11-methylene Prostaglandin D2] the “Fold activity (1 uM)” value was “B (1.1~2.0 (moderate))”.

In the case of CCCCC[C@](C)(O)/C=C/[C@H]1[C@H](O)CC(=O)[C@@H]1CCCCCCC(=O)O [Compound 27, 15(S)-15-methyl Prostaglandin E1], the “Fold activity (1 uM)” value is reported as “A (above 2.0 (high activity))”.

In the case of CCCCC[C@H](O)/C=C/[C@H]1[C@H](O)CC(=O)[C@@H]1C/C=C\CCCC(=O)OC [Compound 28, Prostaglandin E2 methyl ester], the “Fold activity (1 uM)” value is reported as “A (above 2.0 (high activity))”.

In the case of CCCCCC(=O)CC[C@H]1[C@H](O)CC(=O)[C@@H]1C/C=C\CCCC(=O)O [Compound 29, 13,14-dihydro-15-keto Prostaglandin E2], the “Fold activity (1 uM)” value is reported as “B (1.1~2.0 (moderate))”.

O=C(O)CCC/C=C\C[C@H]1C(=O)C[C@@H](O)[C@@H]1/C=C/[C@@H](O)Cc1ccccc1 [Compound 30, 16-phenyl tetranor Prostaglandin E2] was tested, and the “Fold activity (1 uM)” value was “A (above 2.0 (high activity))”.

CCCC1([C@H](O)C/C=C/[C@H]2[C@H](O)CC(=O)[C@@H]2CCCCCCC(=O)O)CCC1 [Compound 31, (R)-Butaprost (free acid)] was tested, and the “Fold activity (1 uM)” value was “B (1.1~2.0 (moderate))”.

For CCCCC[C@H](O)/C=C/[C@H]1C(=O)C[C@H](O)[C@@H]1C/C=C\CCCC(=O)NC(CO)CO [Compound 32, Prostaglandin D2 serinol amide], the “Fold activity (1 uM)” value was “C (below 1.0 (low activity))”.

In the case of CCCCCC(=O)CC[C@H]1C(=O)C[C@H](O)[C@@H]1C/C=C\CCCC(=O)O [Compound 33, 13,14-dihydro-15-keto Prostaglandin D2], the “Fold activity (1 uM)” value is reported as “B (1.1~2.0 (moderate))”.

For CCCCC[C@H](O)/C=C/[C@H]1[C@H](O)CC(=O)[C@@H]1CCCCCCCCC(=O)O [Compound 34, 1a,1b-dihomo Prostaglandin E1], the “Fold activity (1 uM)” value was “B (1.1~2.0 (moderate))”.

With CCCC1([C@H](O)C/C=C/[C@H]2[C@H](O)CC(=O)[C@@H]2CCCCCCC(=O)OC)CCC1 [Compound 35, (R)-Butaprost] the “Fold activity (1 uM)” value was “B (1.1~2.0 (moderate))”.

For CCCCC[C@H](O)/C=C/[C@H]1[C@H](O)CC(=O)[C@@H]1C/C=C\CCCC(=O)NCCO [Compound 36, Prostaglandin E2 Ethanolamide], the “Fold activity (1 uM)” value was “B (1.1~2.0 (moderate))”.

CCCCC[C@@H](O)/C=C/[C@H]1[C@H](O)CC(=O)[C@@H]1C/C=C\CCCC(=O)O [Compound 37, 15(R)-Prostaglandin E2] was tested, and the “Fold activity (1 uM)” value was “B (1.1~2.0 (moderate))”.

For O=C(O)CCC/C=C\C[C@H]1C(=O)C[C@@H](O)[C@@H]1/C=C/[C@@H](O)CCc1ccccc1 [Compound 38, 17-phenyl trinor Prostaglandin E2], the “Fold activity (1 uM)” value was “B (1.1~2.0 (moderate))”.

For CCCCC[C@H](O)/C=C/[C@H]1[C@H](O)CC(=O)[C@@H]1C/C=C\CCCC(=O)NCCCCCNC(=O)CCCC[C@H]1SC[C@@H]2NC(=O)N[C@@H]21 [Compound 39, Prostaglandin E2-biotin], the “Fold activity (1 uM)” value was “B (1.1~2.0 (moderate))”.

CCCCC[C@H](O)/C=C/[C@H]1[C@H](O)CC(=O)[C@@H]1C/C=C\CCCC(=O)NC(CO)CO [Compound 40, Prostaglandin E2 serinol amide] was tested, and the “Fold activity (1 uM)” value was “C (below 1.0 (low activity))”.

CCCCC[C@H](O)C/C=C1/C(=O)C[C@H](O)[C@@H]1C/C=C\CCCC(=O)O [Compound 41, D12-Prostaglandin D2] was tested, and the “Fold activity (1 uM)” value was “C (below 1.0 (low activity))”.

With CCCCC[C@H](O)/C=C/[C@H]1[C@H](O)CC(=O)[C@@H]1CC(=O)CCCCC(=O)O [Compound 42, 6-keto Prostaglandin E1] the “Fold activity (1 uM)” value was “A (above 2.0 (high activity))”.

CCCC1([C@H](O)C/C=C/[C@H]2[C@H](O)CC(=O)[C@@H]2C/C=C\CCCC(=O)O)CCC1 [Compound 43, CAY10408] was tested, and the “Fold activity (1 uM)” value was “B (1.1~2.0 (moderate))”.

CCCCC[C@H](O)/C=C/[C@H]1[C@H](O)CC(=O)[C@@H]1C/C=C/CCCC(=O)Oc1ccc(NC(C)=O)cc1 [Compound 44, Prostaglandin E2 p-acetamidophenyl ester] was tested, and the “Fold activity (1 uM)” value was “A (above 2.0 (high activity))”.

With CCCCCC(=O)/C=C/[C@H]1[C@H](O)CC(=O)[C@@H]1C/C=C\CCCC(=O)O [Compound 45, 15-keto Prostaglandin E2] the “Fold activity (1 uM)” value was “B (1.1~2.0 (moderate))”.

For O=C(O)CCCCC(=O)CC[C@H]1[C@H](O)CC(=O)[C@@H]1CCC(=O)O [Compound 46, tetranor-PGEM], the “Fold activity (1 uM)” value was “C (below 1.0 (low activity))”.

For CCCCC[C@@H](O)/C=C/[C@H]1[C@H](C/C=C\CCCC(=O)O)C(=O)C[C@@H]1O [Compound 47, ent-Prostaglandin E2], the “Fold activity (1 uM)” value was “B (1.1~2.0 (moderate))”.

With CCCCC[C@H](O)/C=C/[C@H]1C(=O)C[C@H](O)[C@@H]1CCCCCCC(=O)O [Compound 48, Prostaglandin D1] the “Fold activity (1 uM)” value was “C (below 1.0 (low activity))”.

CCCCC[C@@](C)(O)/C=C/[C@H]1C(=O)C[C@H](O)[C@@H]1C/C=C\CCCC(=O)O [Compound 49, 15(R)-15-methyl Prostaglandin D2] was tested, and the “Fold activity (1 uM)” value was “C (below 1.0 (low activity))”.

With CCCCC[C@H](O)/C=C/[C@H]1[C@H](O)CC(=O)[C@H]1CCCCCCC(=O)O [Compound 50, 8-iso Prostaglandin E1] the “Fold activity (1 uM)” value was “A (above 2.0 (high activity))”.

CCCCC(C)(C)[C@@H](O)/C=C/[C@H]1[C@H](O)CC(=O)[C@@H]1CCCCCCC(=O)O [Compound 51, 16,16-dimethyl Prostaglandin E1] was tested, and the “Fold activity (1 uM)” value was “A (above 2.0 (high activity))”.

CCCCC[C@H](O)/C=C/[C@H]1[C@H](O)CC(=O)[C@@H]1C/C=C\CCCC(=O)Oc1ccc(NC(=O)c2ccccc2)cc1 [Compound 52, Prostaglandin E2 p-benzamidophenyl ester] was tested, and the “Fold activity (1 uM)” value was “A (above 2.0 (high activity))”.

In the case of CCCCC[C@@](C)(O)/C=C/[C@H]1[C@H](O)CC(=O)[C@@H]1C/C=C\CCCC(=O)O [Compound 53, 15(R)-15-methyl Prostaglandin E2], the “Fold activity (1 uM)” value is reported as “B (1.1~2.0 (moderate))”.

C[C@@H](O)CCC[C@H](O)/C=C/[C@H]1[C@H](O)CC(=O)[C@@H]1C/C=C\CCCC(=O)O [Compound 54, 19(R)-hydroxy Prostaglandin E2] was tested, and the “Fold activity (1 uM)” value was “A (above 2.0 (high activity))”.

CCCCC[C@H](O)/C=C/[C@H]1C(=O)C[C@H](O)[C@@H]1C/C=C\CCCC(=O)OC [Compound 55, Prostaglandin D2 methyl ester] was tested, and the “Fold activity (1 uM)” value was “C (below 1.0 (low activity))”.
